Assay results: ChEMBL document CHEMBL1649268, “Comparative in vitro activity profile of oritavancin against recent gram-positive clinical isolates” (2009)
In brackets after ≈: the same amount, converted by molar mass.

Experiments:
[1] = test system: Enterococcus faecalis; assay: Antimicrobial activity against Enterococcus faecalis expressing VanA gene clinical isolates by broth microdilution method; format: functional
[2] = test system: Enterococcus faecium; assay: Antimicrobial activity against vancomycin-susceptible Enterococcus faecium clinical isolates assessed as resistant isolates by broth microdilution method; format: functional
[3] = test system: Enterococcus faecalis; assay: Antimicrobial activity against vancomycin-nonsusceptible Enterococcus faecalis clinical isolates by broth microdilution method; format: functional
[4] = test system: Staphylococcus epidermidis; assay: Antimicrobial activity against Staphylococcus epidermidis clinical isolates by broth microdilution method; format: functional
[5] = test system: Staphylococcus epidermidis; assay: Antimicrobial activity against oxacillin-resistant Staphylococcus epidermidis clinical isolates by broth microdilution method; format: functional
[6] = test system: Staphylococcus epidermidis; assay: Antimicrobial activity against oxacillin-resistant Staphylococcus epidermidis clinical isolates assessed as percent susceptible isolates by broth microdilution method; format: functional
[7] = test system: Enterococcus faecalis; assay: Antimicrobial activity against vancomycin-nonsusceptible Enterococcus faecalis clinical isolates assessed as resistant isolates by broth microdilution method; format: functional
[8] = test system: Staphylococcus aureus; assay: Antimicrobial activity against oxacillin-susceptible Staphylococcus aureus clinical isolates by broth microdilution method; format: functional
[9] = test system: Enterococcus faecium; assay: Antimicrobial activity against Enterococcus faecium clinical isolates assessed as resistant isolates by broth microdilution method; format: functional
[10] = Antimicrobial activity against Streptococcus Group C clinical isolates assessed as percent susceptible isolates by broth microdilution method; format: functional, Streptococcus sp. 'group C'
[11] = test system: Streptococcus; assay: Antimicrobial activity against erythromycin-nonsusceptible Streptococcus Group F clinical isolates assessed as percent susceptible isolates by broth microdilution method; format: functional
[12] = test system: Staphylococcus epidermidis; assay: Antimicrobial activity against Staphylococcus epidermidis clinical isolates assessed as resistant isolates by broth microdilution method; format: functional
[13] = test system: Streptococcus; assay: Antimicrobial activity against Streptococcus Group F clinical isolates assessed as percent susceptible isolates by broth microdilution method; format: functional
[14] = test system: Staphylococcus aureus; assay: Antimicrobial activity against oxacillin-susceptible Staphylococcus aureus clinical isolates assessed as resistant isolates by broth microdilution method; format: functional
[15] = test system: Enterococcus faecalis; assay: Antimicrobial activity against Enterococcus faecalis expressing VanB gene clinical isolates assessed as resistant isolates by broth microdilution method; format: functional
[16] = Antimicrobial activity against erythromycin-nonsusceptible Streptococcus Group G clinical isolates assessed as percent susceptible isolates by broth microdilution method; format: functional, Streptococcus sp. 'group G'
[17] = test system: Enterococcus faecium; assay: Antimicrobial activity against Enterococcus faecium expressing VanB gene clinical isolates assessed as percent susceptible isolates by broth microdilution method; format: functional
[18] = test system: Staphylococcus epidermidis; assay: Antimicrobial activity against oxacillin-susceptible Staphylococcus epidermidis clinical isolates assessed as resistant isolates by broth microdilution method; format: functional
[19] = test system: Staphylococcus haemolyticus; assay: Antimicrobial activity against Staphylococcus haemolyticus clinical isolates by broth microdilution method; format: functional
[20] = test system: Enterococcus faecium; assay: Antimicrobial activity against Enterococcus faecium expressing VanA gene clinical isolates assessed as percent susceptible isolates by broth microdilution method; format: functional
[21] = test system: Enterococcus faecalis; assay: Antimicrobial activity against Enterococcus faecalis clinical isolates assessed as percent susceptible isolates by broth microdilution method; format: functional
[22] = test system: Enterococcus faecalis; assay: Antimicrobial activity against Enterococcus faecalis expressing VanB gene clinical isolates assessed as percent susceptible isolates by broth microdilution method; format: functional
[23] = test system: Staphylococcus haemolyticus; assay: Antimicrobial activity against oxacillin-susceptible Staphylococcus haemolyticus clinical isolates assessed as percent susceptible isolates by broth microdilution method; format: functional
[24] = test system: Enterococcus faecium; assay: Antimicrobial activity against Enterococcus faecium expressing VanB gene clinical isolates by broth microdilution method; format: functional
[25] = test system: Enterococcus faecium; assay: Antimicrobial activity against vancomycin-susceptible Enterococcus faecium clinical isolates by broth microdilution method; format: functional
[26] = test system: Staphylococcus aureus; assay: Antimicrobial activity against oxacillin-resistant Staphylococcus aureus clinical isolates assessed as percent susceptible isolates by broth microdilution method; format: functional
[27] = test system: Enterococcus faecium; assay: Antimicrobial activity against vancomycin-nonsusceptible Enterococcus faecium clinical isolates by broth microdilution method; format: functional
[28] = test system: Staphylococcus epidermidis; assay: Antimicrobial activity against oxacillin-susceptible Staphylococcus epidermidis clinical isolates assessed as percent susceptible isolates by broth microdilution method; format: functional
[29] = test system: Enterococcus faecalis; assay: Antimicrobial activity against vancomycin-susceptible Enterococcus faecalis clinical isolates by broth microdilution method; format: functional
[30] = test system: Staphylococcus epidermidis; assay: Antimicrobial activity against oxacillin-susceptible Staphylococcus epidermidis clinical isolates by broth microdilution method; format: functional
[31] = test system: Staphylococcus aureus; assay: Antimicrobial activity against Staphylococcus aureus clinical isolates by broth microdilution method; format: functional
[32] = test system: Staphylococcus aureus; assay: Antimicrobial activity against Staphylococcus aureus clinical isolates assessed as percent susceptible isolates by broth microdilution method; format: functional
[33] = test system: Staphylococcus haemolyticus; assay: Antimicrobial activity against Staphylococcus haemolyticus clinical isolates assessed as resistant isolates by broth microdilution method; format: functional
[34] = test system: Staphylococcus haemolyticus; assay: Antimicrobial activity against oxacillin-susceptible Staphylococcus haemolyticus clinical isolates assessed as resistant isolates by broth microdilution method; format: functional
[35] = test system: Enterococcus faecalis; assay: Antimicrobial activity against Enterococcus faecalis expressing VanA gene clinical isolates assessed as resistant isolates by broth microdilution method; format: functional
[36] = test system: Enterococcus faecalis; assay: Antimicrobial activity against Enterococcus faecalis clinical isolates assessed as resistant isolates by broth microdilution method; format: functional
[37] = test system: Enterococcus faecium; assay: Antimicrobial activity against Enterococcus faecium clinical isolates by broth microdilution method; format: functional
[38] = test system: Staphylococcus haemolyticus; assay: Antimicrobial activity against oxacillin-susceptible Staphylococcus haemolyticus clinical isolates by broth microdilution method; format: functional
[39] = test system: Enterococcus faecalis; assay: Antimicrobial activity against Enterococcus faecalis expressing VanA gene clinical isolates assessed as percent susceptible isolates by broth microdilution method; format: functional
[40] = test system: Streptococcus; assay: Antimicrobial activity against erythromycin-susceptible Streptococcus Group F clinical isolates assessed as resistant isolates by broth microdilution method; format: functional
[41] = test system: Streptococcus pneumoniae; assay: Antimicrobial activity against penicillin-resistant Streptococcus pneumoniae clinical isolates assessed as resistant isolates by broth microdilution method; format: functional
[42] = test system: Streptococcus; assay: Antimicrobial activity against erythromycin-nonsusceptible Streptococcus Group F clinical isolates assessed as resistant isolates by broth microdilution method; format: functional
[43] = Antimicrobial activity against erythromycin-susceptible Streptococcus Group C clinical isolates assessed as resistant isolates by broth microdilution method; format: functional, Streptococcus sp. 'group C'
[44] = test system: Streptococcus pyogenes; assay: Antimicrobial activity against Streptococcus pyogenes clinical isolates assessed as resistant isolates by broth microdilution method; format: functional
[45] = Antimicrobial activity against Streptococcus Group C clinical isolates assessed as resistant isolates by broth microdilution method; format: functional, Streptococcus sp. 'group C'
[46] = test system: Streptococcus pneumoniae; assay: Antimicrobial activity against Streptococcus pneumoniae clinical isolates assessed as resistant isolates by broth microdilution method; format: functional
[47] = test system: Streptococcus; assay: Antimicrobial activity against Streptococcus Group F clinical isolates assessed as resistant isolates by broth microdilution method; format: functional
[48] = Antimicrobial activity against erythromycin-nonsusceptible Streptococcus Group G clinical isolates assessed as resistant isolates by broth microdilution method; format: functional, Streptococcus sp. 'group G'
[49] = test system: Streptococcus pyogenes; assay: Antimicrobial activity against erythromycin-nonsusceptible Streptococcus pyogenes clinical isolates assessed as resistant isolates by broth microdilution method; format: functional
[50] = test system: Streptococcus pneumoniae; assay: Antimicrobial activity against penicillin-susceptible Streptococcus pneumoniae clinical isolates assessed as resistant isolates by broth microdilution method; format: functional
[51] = Antimicrobial activity against Streptococcus Group G clinical isolates assessed as resistant isolates by broth microdilution method; format: functional, Streptococcus sp. 'group G'
[52] = Antimicrobial activity against erythromycin-susceptible Streptococcus Group G clinical isolates assessed as resistant isolates by broth microdilution method; format: functional, Streptococcus sp. 'group G'
[53] = test system: Enterococcus faecium; assay: Antimicrobial activity against Enterococcus faecium expressing VanB gene clinical isolates assessed as resistant isolates by broth microdilution method; format: functional
[54] = test system: Enterococcus faecium; assay: Antimicrobial activity against vancomycin-susceptible Enterococcus faecium clinical isolates assessed as percent susceptible isolates by broth microdilution method; format: functional
[55] = test system: Enterococcus faecium; assay: Antimicrobial activity against Enterococcus faecium expressing VanA gene clinical isolates assessed as resistant isolates by broth microdilution method; format: functional
[56] = test system: Enterococcus faecium; assay: Antimicrobial activity against vancomycin-nonsusceptible Enterococcus faecium clinical isolates assessed as resistant isolates by broth microdilution method; format: functional

For CN[C@H](CC(C)C)C(=O)N[C@H]1C(=O)N[C@@H](CC(N)=O)C(=O)N[C@H]2C(=O)N[C@H]3C(=O)N[C@H](C(=O)N[C@H](C(=O)O)c4cc(O)cc(O)c4-c4cc3ccc4O)[C@H](O)c3ccc(c(Cl)c3)Oc3cc2cc(c3O[C@@H]2O[C@H](CO)[C@@H](O)[C@H](O)[C@H]2O[C@H]2C[C@](C)(N)[C@H](O)[C@H](C)O2)Oc2ccc(cc2Cl)[C@H]1O [VANCOMYCIN], the MIC90 [1] was over 256 mg/L, the Activity [2] was 0% and the MIC90 [3] was over 256 mg/L. For the same compound, the MIC90 [4] was 2 mg/L (≈ 1.38 µM), the MIC90 [5] was 2 mg/L (≈ 1.38 µM) and the Activity [6] was 100%. The Activity [7] was 94.3%, the MIC90 [8] was 1 mg/L (≈ 0.69 µM) and the Activity [9] was 56.3%. For the same compound, the Activity [10] was 100%, the Activity [11] was 100% and the “Percent of isolates resistant” value [12] was 0%. The Activity [13] was 100%, the “Percent of isolates resistant” value [14] was 0% and the Activity [15] was 100%. The Activity [16] was 100%, the Activity [17] was 0% and the “Percent of isolates resistant” value [18] was 0%. The MIC90 [19] was 2 mg/L (≈ 1.38 µM), the Activity [20] was 0% and the Activity [21] was 95%. For the same compound, the Activity [22] was 0%, the Activity [23] was 100% and the MIC90 [24] was 256 mg/L (≈ 177 µM). The MIC90 [25] was 1 mg/L (≈ 0.69 µM), the Activity [26] was 100% and the MIC90 [27] was over 256 mg/L. The Activity [28] was 100%, the MIC90 [29] was 2 mg/L (≈ 1.38 µM) and the MIC90 [30] was 2 mg/L (≈ 1.38 µM). The MIC90 [31] was 1 mg/L (≈ 0.69 µM), the Activity [32] was 100% and the Resistant isolates [33] was 0%. For the same compound, the Activity [34] was 0%, the Activity [35] was 100% and the Activity [36] was 4.7%. For the same compound, the MIC90 [37] was over 256 mg/L, the MIC90 [38] was 1 mg/L (≈ 0.69 µM) and the Activity [39] was 0%.
For CCC[C@@H]1C[C@@H](C(=O)N[C@@H]([C@H]2O[C@H](SC)[C@H](O)[C@@H](O)[C@H]2O)[C@H](C)Cl)N(C)C1 [CLINDAMYCIN], the MIC90 [4] was over 4 mg/L, the Activity [40] was 0% and the Activity [6] was 56.3%. For the same compound, the MIC90 [8] was 0.25 mg/L (≈ 0.588 µM), the “Percent of isolates resistant” value [41] was 54.1% and the Activity [10] was 96.4%. The Activity [11] was 82.4%, the “Percent of isolates resistant” value [12] was 34.5% and the Activity [42] was 17.6%. The Activity [13] was 96.4%, the “Percent of isolates resistant” value [14] was 8% and the Activity [16] was 82.4%. For the same compound, the Activity [43] was 0%, the “Percent of isolates resistant” value [18] was 11% and the Activity [44] was 3.9%. It also gave an MIC90 [19] of over 2 mg/L, an Activity [45] of 3.6% and a Resistant isolates [46] of 12.9%. It also gave an Activity [23] of 95.8%, an Activity [26] of 61.9% and an Activity [47] of 3.6%. For the same compound, the Activity [48] was 17.6%, the Activity [28] was 88.2% and the MIC90 [30] was over 2 mg/L. The MIC90 [31] was over 4 mg/L, the Activity [32] was 75.7% and the Resistant isolates [33] was 27.9%. The Activity [34] was 2.8%, the Activity [49] was 28.2% and the “Percent of isolates resistant” value [50] was 2.6%. It also gave an Activity [51] of 3.6%, an MIC90 [38] of 0.12 mg/L (≈ 0.282 µM) and an Activity [52] of 0%.
Work on C[C@H]1COc2c(N3CCN(C)CC3)c(F)cc3c(=O)c(C(=O)O)cn1c23.C[C@H]1COc2c(N3CCN(C)CC3)c(F)cc3c(=O)c(C(=O)O)cn1c23.O [LEVOFLOXACIN] yielded an MIC90 [1] of over 16 mg/L, an Activity [2] of 66% and an MIC90 [3] of over 16 mg/L. For the same compound, the Activity [53] was 100%, the Activity [7] was 100% and the Activity [9] was 85.3%. The Activity [54] was 28.3%, the “Percent of isolates resistant” value [41] was 0.7% and the Activity [15] was 100%. For the same compound, the Activity [43] was 0%, the Activity [17] was 0% and the Activity [44] was 0.1%. The Activity [45] was 0%, the Activity [20] was 0.2% and the Resistant isolates [46] was 0.9%. It also gave an Activity [21] of 61.2%, an Activity [22] of 0% and an MIC90 [24] of over 16 mg/L. For the same compound, the MIC90 [25] was over 16 mg/L, the MIC90 [27] was over 16 mg/L and the Activity [55] was 99.8%. The Activity [48] was 0%, the MIC90 [29] was over 16 mg/L and the Activity [35] was 100%. The Activity [36] was 38.4%, the Activity [49] was 0.8% and the MIC90 [37] was over 16 mg/L. The “Percent of isolates resistant” value [50] was 0.5%, the Activity [51] was 0% and the Activity [56] was 99.8%. It also gave an Activity [39] of 0% and an Activity [52] of 0%.
